Assay results from article PMC9394284, “Discovery of Novel Dual Adenosine A2A and A1 Receptor Antagonists with 1H-Pyrazolo[3,4-d]pyrimidin-6-amine Core Scaffold as Anti-Parkinson’s Disease Agents” (Pharmaceuticals, 2022).

What was measured:
A1 adenosine receptor = biological target: T1, A1 adenosine receptor (Homo sapiens, UniProt P30542); experiment: cyclic AMP HTRF functional assay, CHO-K1 (A1); assay type: cell-based; conditions: CHO-K1 cells
T1 sequence (P30542 1-326): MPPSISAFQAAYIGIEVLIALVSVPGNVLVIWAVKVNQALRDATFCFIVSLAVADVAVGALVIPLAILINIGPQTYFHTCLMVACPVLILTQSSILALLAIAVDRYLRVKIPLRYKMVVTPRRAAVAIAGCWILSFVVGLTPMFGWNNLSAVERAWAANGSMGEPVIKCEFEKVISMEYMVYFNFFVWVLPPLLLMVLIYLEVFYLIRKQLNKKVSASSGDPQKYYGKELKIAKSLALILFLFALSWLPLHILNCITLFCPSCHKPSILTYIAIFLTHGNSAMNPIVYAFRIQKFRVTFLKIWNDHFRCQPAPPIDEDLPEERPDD
Description: Next, the functional activity of 11o against A1 and A2A adenosine receptors was evaluated using c-AMP assay in CHO-K1 (A1) and HEK-293 (A2A) cells.
For functional studies, A1 and A2A receptor cyclic AMP HTRF (homogeneous time resolved fluorescence) assay was performed at EuroscreenFast (Charleroi, Belgium) using CHO-K1 (A1) and HEK293 (A2A) stable cell line with CPA (A1) and NECA (A2A) as reference agonist and DPCPX (A1) and ZM241385 (A2A) as reference antagonist compound.

[1] = metabolic stability in cryopreserved monkey hepatocytes
Description: Metabolic stability of 11o was determined in cryopreserved hepatocytes from mice, rats, dogs, monkeys and human according to the SOPs of Frontage Laboratories Inc. Briefly, cryopreserved hepatocytes for pre-clinical animals and for human (BioIVT, Westbury, NY, USA) were thawed in a 37 °C water bath with gentle shaking until ice had almost melted. The suspensions were immediately transferred to a centrifuge tube (50 mL) containing pre-warmed thawing media at 37 °C with gentle handshaking to prevent the cells from settling. Cell suspensions were centrifuged at 50× g and 4 °C for 5 min. The supernatant was discarded and the pellets were resuspended in prewarmed incubation media (5 mL) at 37 °C. The percentage of viable cells in the suspension was determined by Trypan blue staining method to ensure viability of ≥70 %. […] The samples were centrifuged and aliquots of the supernatant were analyzed for parent compounds by LC/MS/MS using suitable multiple reaction monitoring (MRM) transitions. […] The disappearance of 11o and midazolam was monitored by LC/MS/MS (MRM) analysis of the hepatocyte extracts at each time point. The peak area ratio of the analyte to internal standard was obtained for each sample and the rate of disappearance of 11o was assessed by comparing the peak area ratios at various time points to the peak area ratio obtained at t = 0. The t1/2 is obtained (using the linear portion of semi-log plot of the area ratio vs. time) and the CLint values determined using well-stirred model.

Cc1cc(Cn2ncc3c(-c4cccc(C#N)c4F)nc(N)nc32)ccc1N [11o, 3-(6-Amino-1-(4-amino-3-methylbenzyl)-1H-pyrazolo[3,4-d]pyrimidin-4-yl)-2-fluorobenzonitrile]
functional activity at A1 receptor (A1 adenosine receptor): full antagonism | IC50 (A1 adenosine receptor; read-out: IC50, A1 functional antagonism (c-AMP)): 98.8 nM | CLint scaled at 1 μM ([1]; cynomolgus monkey, cryopreserved hepatocytes in suspension): 20.1 mL/min/kg | Intrinsic Clearance ([1]; monkey hepatocytes, 1 μM 11o): 0.00558 mL/min/10^6 Cells | half-life at 1 μM ([1]; monkey, cryopreserved hepatocytes in suspension): 2.07 h
